According to patent US20060008512A1, “Composition and methods for improved animal performance” (priority 2004, published 2006):
Like-named read-outs stand apart in the source and are kept apart here. Marks after values point to notes of the source that are not given here.

What was measured:
young rats = conditions: 10 mg L-thyroxine/kg diet; 400 mg magnesium/kg; cited from earlier work
turkey breeder hens = assay: Experiment 7: molting of turkey breeder hens with dietary L-thyroxine, porcine thyroid powder or TIC with or without protease; type: in vivo; conditions: for Ending (10 d) Body Wt / Liver Weight / Ovary Weight / Oviduct Weight: turkey breeder hens, 6 per treatment
Description: Experiment 7. Molting of Turkey Breeder Hens with Dietary L-Thyroxine, Porcine Thyroid Powder, or Thyroactive Iodinated Casein With or Without Protease. Turkey breeder hens were molted with various dietary thyroxine treatments at Diamond K Research, […]. (Jun. 20-Jul. 1, 2005).

[1] = test system: Hy-Line W-36 White Leghorn hens; conditions: for Egg Shell, % (washed, dried): 10 mg/kg of feed, 6 & 10 d rooms combined
Method: Experiment 2. […] The photoperiod was 17 hours of light per day (0330 hours to 2030 hours).
The objective was to use T4 to humanely induce molting in hens that are continuously provided with ad libitum access to palatable feed meeting or exceeding all National Research Council (1994) standards. Developing a fully efficacious yet affordable molting protocol was predicated on determining the minimum effective level for T4 supplementation. Factors that potentially may affect the required level of T4 supplementation include: (1) uncertainty regarding the efficiency of T4 absorption by the gastrointestinal tract, (2) the possibility that continuous dietary ingestion of T4 could trigger substantially different biological responses when compared single daily injections, and (3) the likelihood that daily T4 intake would diminish in parallel with molt-related reductions in feed intake associated with cessation in egg production. A spontaneous and voluntary loss of appetite (anorexia) commonly accompanies seasonal molting and broodiness in a variety of avian species (Berry, 2003; Webster, 2003). Accordingly, the responses of hens to diets containing 10, 20, and 40 mg T4/kg, to bracket the anticipated range of T4 needed to cause an effective molt, were determined.

[2] = 10 mg T4/kg diet fed for 10 days
[3] = 25 mg T4/kg diet fed for 10 days
[4] = 40 mg T4/kg diet fed for 10 days
[5] = 10 mg/kg of feed 6 d from day 5, Day 7
[6] = 10 mg/kg of feed 6 d from day 5, Day 10
[7] = 10 mg/kg of feed 6 d from day 5, Day 14
[8] = 10 mg/kg of feed 6 d from day 5, Day 30
[9] = 10 mg/kg of feed 10 d from day 5, Day 7
[10] = 10 mg/kg of feed 10 d from day 5, Day 10
[11] = 10 mg/kg of feed 10 d from day 5, Day 14
[12] = 10 mg/kg of feed 10 d from day 5, Day 30
[13] = 20 mg/kg of feed 6 d from day 5, Day 7
[14] = 20 mg/kg of feed 6 d from day 5, Day 10
[15] = 20 mg/kg of feed 6 d from day 5, Day 14

## N[C@@H](Cc1cc(I)c(Oc2cc(I)c(O)c(I)c2)c(I)c1)C(=O)O [L-thyroxine, 3,5,3′,5′-tetraiodo-L-thyronine]
Young rats
  Weight gain in 16 days: 60 g
Turkey breeder hens; [2]
  Ending (10 d) Body Wt: 23.03 lb
  Liver Weight: 143.0^bc g
  Ovary Weight: 159.1^a g
  Oviduct Weight: 124.1^a g
Turkey breeder hens; [3]
  Ending (10 d) Body Wt: 25.11 lb
  Liver Weight: 144.6^b g
  Ovary Weight: 160.5^a g
  Oviduct Weight: 134.7^a g
Turkey breeder hens; [4]
  Ending (10 d) Body Wt: 22.99 lb
  Liver Weight: 141.9^bc g
  Ovary Weight: 129.1^a g
  Oviduct Weight: 138.7^a g
Turkey breeder hens; 10, 20, or 40 mg T4/kg diet, 10 days
  Regressing reproductive tracts: not as effective as porcine thyroid powder
[1]; 10 mg T4/kg, 10 days on test diets, half of the hens
  Onset of molt after T4 feeding was initiated: 11 days
[1]; 10 mg/kg of feed 6 d from day 5, Day 1
  Body weight (BW): 1501 g
[1]; [5]
  Body weight (BW): 1377 g
  Body weight change from day 1 (% BWC): −8.3%
[1]; [6]
  Body weight (BW): 1293 g
  Body weight change from day 1 (% BWC): −13.9%
[1]; [7]
  Body weight (BW): 1424 g
  Body weight change from day 1 (% BWC): −5.1%
[1]; [8]
  Body weight (BW): 1483 g
  Body weight change from day 1 (% BWC): −1.2%
[1]; 10 mg/kg of feed 6 d from day 5, day 4
  Hen-day egg production: 75%
[1]; 10 mg/kg of feed 6 d from day 5, day 6
  Hen-day egg production: 58%
[1]; 10 mg/kg of feed 6 d from day 5, day 8
  Hen-day egg production: 25%
[1]; 10 mg/kg of feed 6 d from day 5, day 10
  Hen-day egg production: 8%
[1]; 10 mg/kg of feed 6 d from day 5, day 12
  Hen-day egg production: 17%
[1]; 10 mg/kg of feed 6 d from day 5, day 14
  Hen-day egg production: 0%
[1]; 10 mg/kg of feed 6 d from day 5, day 16
  Hen-day egg production: 33%
[1]; 10 mg/kg of feed 6 d from day 5, day 18
  Hen-day egg production: 25%
[1]; 10 mg/kg of feed 6 d from day 5, day 20
  Hen-day egg production: 58%
[1]; 10 mg/kg of feed 6 d from day 5, day 22
  Hen-day egg production: 75%
[1]; 10 mg/kg of feed 6 d from day 5, day 24
  Hen-day egg production: 83%
[1]; 10 mg/kg of feed 6 d from day 5, day 26
  Hen-day egg production: 42%
[1]; 10 mg/kg of feed 6 d from day 5, day 28
  Hen-day egg production: 83%
[1]; 10 mg/kg of feed 6 d from day 5, day 30
  Hen-day egg production: 75%
[1]; 10 mg/kg of feed 10 d from day 5, Day 1
  Body weight (BW): 1477 g
[1]; [9]
  Body weight (BW): 1372 g
  Body weight change from day 1 (% BWC): −7.1%
[1]; [10]
  Body weight (BW): 1335 g
  Body weight change from day 1 (% BWC): −9.6%
[1]; [11]
  Body weight (BW): 1314 g
  Body weight change from day 1 (% BWC): −11.0%
[1]; [12]
  Body weight (BW): 1400 g
  Body weight change from day 1 (% BWC): −5.2%
[1]; 10 mg/kg of feed 10 d from day 5, day 4
  Hen-day egg production: 58%
[1]; 10 mg/kg of feed 10 d from day 5, day 6
  Hen-day egg production: 50%
[1]; 10 mg/kg of feed 10 d from day 5, day 8
  Hen-day egg production: 42%
[1]; 10 mg/kg of feed 10 d from day 5, day 10
  Hen-day egg production: 17%
[1]; 10 mg/kg of feed 10 d from day 5, day 12
  Hen-day egg production: 17%
[1]; 10 mg/kg of feed 10 d from day 5, day 14
  Hen-day egg production: 17%
[1]; 10 mg/kg of feed 10 d from day 5, day 16
  Hen-day egg production: 17%
[1]; 10 mg/kg of feed 10 d from day 5, day 18
  Hen-day egg production: 25%
[1]; 10 mg/kg of feed 10 d from day 5, day 22
  Hen-day egg production: 33%
[1]; 10 mg/kg of feed 10 d from day 5, day 24
  Hen-day egg production: 50%
[1]; 10 mg/kg of feed 10 d from day 5, day 26
  Hen-day egg production: 25%
[1]; 10 mg/kg of feed 10 d from day 5, day 28
  Hen-day egg production: 25%
[1]; 10 mg/kg of feed 10 d from day 5, day 30
  Hen-day egg production: 33%
[1]; Days 2 to 4
  Egg Shell, % (washed, dried): 7.93 (n = 6) %
[1]; Days 5 to 6
  Egg Shell, % (washed, dried): 7.39 (n = 9) %
[1]; Days 7 to 8
  Egg Shell, % (washed, dried): 6.63 (n = 8) %
[1]; 20 mg/kg of feed 6 d from day 5, Day 1
  Body weight (BW): 1582 g
[1]; [13]
  Body weight (BW): 1434 g
  Body weight change from day 1 (% BWC): −9.4%
[1]; [14]
  Body weight (BW): 1373 g
  Body weight change from day 1 (% BWC): −13.2%
[1]; [15]
  Body weight (BW): 1491 g
  Body weight change from day 1 (% BWC): −3.9%
